Results on 24 compounds are retold here after patent US12568969B2, “Pyridine compounds for controlling invertebrate pests” (FMC Corporation, priority 2020, dated 2026).

As a reminder, the mortality is the share of the test organisms that died. Lower therefore signals a weak lethal effect.

Common to all, as to format: in vivo
The subject of assay [1] is diamondback moth (Plutella xylostella (L.)). The assay can be described thus: Test A: control of diamondback moth on mustard plant, spray. To be noted: sprayed at 250 ppm; assessed after 6 days. The protocol:
(§1) Test compounds were formulated using a solution containing 10% acetone, […] and 300 ppm Activator 909 non-ionic surfactant (Loveland Products, Loveland, Colorado, USA). The formulated compounds were applied in 1 mL of liquid through an atomizer nozzle positioned 1.27 cm (0.5 inches) above the top of each test unit. Test compounds were sprayed at the rates indicated, and each test was replicated three times.
For evaluating control of diamondback moth (Plutella xylostella (L.)) the test unit consisted of a small open container with a 12-14-day-old mustard plant inside. This was pre-infested with ˜50 neonate larvae that were dispensed into the test unit via corn cob grits using an inoculator. The larvae moved onto the test plant after being dispensed into the test unit.
Test compounds were formulated and sprayed at 250 ppm. After spraying of the formulated test compound, each test unit was allowed to dry for 1 hour and then a black, screened cap was placed on top. The test units were held for 6 days in a growth chamber at 25° C. and 70% relative humidity. Plant feeding damage was then visually assessed based on foliage consumed, and larvae were assessed for mortality.

In assay [2] the test system is cotton melon aphid (Aphis gossypii (Glover)). Description: whole plant or invertebrate. The following applies: Aphis gossypii, 144 h, 6 days; for mortality at 50 ppm: sprayed at 50 ppm; for mortality at 250 ppm: sprayed at 250 ppm. The protocol:
as §1
[…] This was pre-infested with 30-40 insects on a piece of leaf according to the cut-leaf method, and the soil of the test unit was covered with a layer of sand.
Test compounds were formulated and sprayed at 250 and/or 50 ppm. After spraying, the test units were maintained in a growth chamber for 6 days at 19° C. and 70% relative humidity. Each test unit was then visually assessed for insect mortality.

Assay [3] deals with green peach aphid (Myzus persicae (Sulzer)). Description: Test D: control of green peach aphid on radish plant, spray. To be noted: Myzus persicae, 144 h, 6 days; for mortality at 50 ppm: sprayed at 50 ppm; for mortality at 250 ppm: sprayed at 250 ppm. The method, then: as §1
For evaluating control of green peach aphid (Myzus persicae (Sulzer)) through contact and/or systemic means, the test unit consisted of a small open container with a 12-15-day-old radish plant inside. This was pre-infested by placing on a leaf of the test plant 30-40 aphids on a piece of leaf excised from a culture plant (cut-leaf method). The aphids moved onto the test plant as the leaf piece desiccated. After pre-infestation, the soil of the test unit was covered with a layer of sand.
[…] After spraying of the formulated test compound, each test unit was allowed to dry for 1 hour and then a black, screened cap was placed on top. The test units were held for 6 days in a growth chamber at 19-21° C. and 50-70% relative humidity. Each test unit was then visually assessed for insect mortality.

The subject of assay [4] is corn planthopper (Peregrinus maidis (Ashmead)). The assay can be described thus: whole plant or invertebrate. The following applies: Peregrinus maidis, 144 h, 6 days; for mortality at 10 ppm: sprayed at 10 ppm; for mortality at 50 ppm: sprayed at 50 ppm; for mortality at 250 ppm: sprayed at 250 ppm. The method, then:
as §1
For evaluating control of corn planthopper (Peregrinus maidis (Ashmead)) through contact and/or systemic means, the test unit consisted of a small open container with a 3-4-day-old corn (maize) plant inside. White sand was added to the top of the soil prior to application of the test compound.
Test compounds were formulated and sprayed at 250 and/or 50 ppm and/or 10 ppm. After spraying of the formulated test compound, the test units were allowed to dry for 1 h before they were post-infested with ˜15-20 nymphs (18-to-21-day-old). A black, screened cap was placed on the top of each test unit, and the test units were held for 6 days in a growth chamber at 22-24° C. and 50-70% relative humidity. Each test unit was then visually assessed for insect mortality.

For the compound `FC(c1ccc(OC(F)(F)F)cc1)c1c(C2CC2)cncc1-n1nccn1` (racemic) [Compound 53], the “control efficacy (40% or less feeding damage and/or 100% mortality)” value in assay [1] is “very good to excellent levels of control efficacy”.
`Cc1noc(-c2cncc(Cl)c2C(F)c2ccc(SC(F)(F)F)cc2)n1` (racemic) [Compound 103]: the “control efficacy (40% or less feeding damage and/or 100% mortality)” value in assay [1] is reported as “very good to excellent levels of control efficacy”.
For the compound `COC(c1ccc(SC(F)(F)F)cc1)c1c(Cl)cncc1-n1nccn1` (single isomer, unassigned) [Compound 130], in assay [2], the mortality at 50 ppm is no less than 80% and the mortality at 250 ppm was no less than 80%. The “control efficacy (40% or less feeding damage and/or 100% mortality)” value in assay [1] is listed as “very good to excellent levels of control efficacy”. In assay [3], this compound registered a mortality at 50 ppm of no less than 80% and a mortality at 250 ppm of no less than 80%. In assay [4], this compound yielded a mortality at 10 ppm of no less than 80%, a mortality at 50 ppm of no less than 80% and a mortality at 250 ppm of no less than 80%.
For the compound `Fc1cncc(-n2cncn2)c1C(F)c1ccc(C(F)(F)F)cc1` (stereo not drawn) [Compound 18], the “control efficacy (40% or less feeding damage and/or 100% mortality)” value in assay [1] is listed as “very good to excellent levels of control efficacy”. For the same compound, the mortality at 50 ppm in assay [3] and in assay [4] was no less than 80% in each case. In addition, the mortality at 250 ppm in assay [3] and in assay [4] was no less than 80% in each case.
As for `Fc1cncc(-n2nccn2)c1C(F)c1ccc(C(F)(F)F)cc1` (stereo not drawn) [Compound 20], the mortality at 50 ppm in assay [2], in assay [3] and in assay [4] was no less than 80% each time. In addition, the mortality at 250 ppm in assay [2], in assay [3] and in assay [4] was no less than 80% each time. In assay [1], the “control efficacy (40% or less feeding damage and/or 100% mortality)” value is given as “very good to excellent levels of control efficacy”.
Regarding `Fc1cncc(-c2ccco2)c1C(F)c1ccc(OC(F)(F)F)cc1` (stereo not drawn) [Compound 22], in assay [2], the mortality at 50 ppm was no less than 80% and the mortality at 250 ppm was no less than 80%. The “control efficacy (40% or less feeding damage and/or 100% mortality)” value in assay [1] was “very good to excellent levels of control efficacy”. The mortality at 250 ppm in assay [3] is no less than 80%. Moreover, in assay [4], the mortality at 10 ppm was no less than 80%, the mortality at 50 ppm was no less than 80% and the mortality at 250 ppm is no less than 80%.
In the case of `Fc1cncc(-c2ccoc2)c1C(F)c1ccc(OC(F)(F)F)cc1` (stereo not drawn) [Compound 23], the “control efficacy (40% or less feeding damage and/or 100% mortality)” value in assay [1] is reported as “very good to excellent levels of control efficacy”. In addition, in assay [3], the mortality at 250 ppm is no less than 80%. For the same compound, in assay [4], the mortality at 50 ppm is no less than 80% and the mortality at 250 ppm is no less than 80%.
For the compound `Fc1cncc(-c2nnco2)c1C(F)c1ccc(OC(F)(F)F)cc1` (stereo not drawn) [Compound 30], the “control efficacy (40% or less feeding damage and/or 100% mortality)” value in assay [1] is “very good to excellent levels of control efficacy”. Moreover, the mortality at 250 ppm in assay [3] is no less than 80%. In assay [4], the mortality at 10 ppm is no less than 80%, the mortality at 50 ppm was no less than 80% and the mortality at 250 ppm was no less than 80%.
For `Fc1cncc(-c2cnco2)c1C(F)c1ccc(OC(F)(F)F)cc1` (stereo not drawn) [Compound 34], the mortality at 50 ppm in assay [2], in assay [3] and in assay [4] was no less than 80% throughout. Further, the mortality at 250 ppm in assay [2], in assay [3] and in assay [4] was no less than 80% throughout. Moreover, the “control efficacy (40% or less feeding damage and/or 100% mortality)” value in assay [1] is recorded as “very good to excellent levels of control efficacy”.
With `Fc1cncc(-c2cccs2)c1C(F)c1ccc(OC(F)(F)F)cc1` (stereo not drawn) [Compound 45], in assay [2], the mortality at 50 ppm is no less than 80% and the mortality at 250 ppm was no less than 80%. Besides, the “control efficacy (40% or less feeding damage and/or 100% mortality)” value in assay [1] is on record as “very good to excellent levels of control efficacy”. In assay [4], this compound displayed a mortality at 10 ppm of no less than 80% and a mortality at 50 ppm of no less than 80%.
Turning to `N#Cc1cncc(-n2nccn2)c1C(F)c1ccc(OC(F)(F)F)cc1` (stereo not drawn) [Compound 48], in assay [1], the “control efficacy (40% or less feeding damage and/or 100% mortality)” value is “very good to excellent levels of control efficacy”. In assay [3], this compound registered a mortality at 50 ppm of no less than 80% and a mortality at 250 ppm of no less than 80%. In assay [4], this compound yielded a mortality at 10 ppm of no less than 80% and a mortality at 50 ppm of no less than 80%.
On to `FC(c1ccc(OC(F)(F)F)cc1)c1c(Cl)cncc1-c1ncco1` (stereo not drawn) [Compound 51], for which, in assay [2], the mortality at 50 ppm was no less than 80% and the mortality at 250 ppm was no less than 80%. The “control efficacy (40% or less feeding damage and/or 100% mortality)” value in assay [1] is “very good to excellent levels of control efficacy”. In assay [4], this compound came in with a mortality at 10 ppm of no less than 80% and a mortality at 50 ppm of no less than 80%.
In the case of `CCn1nccc1-c1cncc(F)c1C(F)c1ccc(OC(F)(F)F)cc1` (stereo not drawn) [Compound 55], the “control efficacy (40% or less feeding damage and/or 100% mortality)” value in assay [1] is “very good to excellent levels of control efficacy”. Also, the mortality at 50 ppm in assay [4] was no less than 80%.
As for `Cn1ccc(-c2cncc(F)c2C(F)c2ccc(OC(F)(F)F)cc2)n1` (stereo not drawn) [Compound 59], the mortality at 250 ppm in assay [2] is no less than 80%. Besides, the “control efficacy (40% or less feeding damage and/or 100% mortality)” value in assay [1] is reported as “very good to excellent levels of control efficacy”.
The like results for `FC(c1ccc(OC(F)(F)F)cc1)c1c(Cl)cncc1-c1cnco1` (stereo not drawn) [Compound 60] were, in that order, no less than 80% and “very good to excellent levels of control efficacy”.
For `Fc1cncc(-c2cnco2)c1C(F)c1ccc(SC(F)(F)F)cc1` (stereo not drawn) [Compound 100], in assay [2], the mortality at 50 ppm is no less than 80% and the mortality at 250 ppm was no less than 80%. The “control efficacy (40% or less feeding damage and/or 100% mortality)” value in assay [1] is recorded as “very good to excellent levels of control efficacy”.
Regarding `FC(c1ccc(SC(F)(F)F)cc1)c1c(Cl)cncc1-c1cnco1` (stereo not drawn) [Compound 105], in assay [2], the mortality at 50 ppm is no less than 80% and the mortality at 250 ppm is no less than 80%. Moreover, the “control efficacy (40% or less feeding damage and/or 100% mortality)” value in assay [1] is “very good to excellent levels of control efficacy”. For the same compound, in assay [4], the mortality at 50 ppm is no less than 80% and the mortality at 250 ppm is no less than 80%.
Turning to `FC(c1ccc2c(c1)OC(F)(F)O2)c1c(Br)cncc1-n1nccn1` (stereo not drawn) [Compound 147], the “control efficacy (40% or less feeding damage and/or 100% mortality)” value in assay [1] is given as “very good to excellent levels of control efficacy”.
As to `COC(c1ccc2c(c1)OC(F)(F)O2)c1c(F)cncc1-n1cccn1` (stereo not drawn) [Compound 155], in assay [1], the “control efficacy (40% or less feeding damage and/or 100% mortality)” value was “very good to excellent levels of control efficacy”.
Turning to `Fc1cncc(-n2cccn2)c1C(F)c1cnc(C(F)(F)F)nc1` (stereo not drawn) [Compound 162], in assay [1], the “control efficacy (40% or less feeding damage and/or 100% mortality)” value was “very good to excellent levels of control efficacy”.
Consider `Fc1cncc(-n2nccn2)c1C(F)c1ccc(Br)nc1` (stereo not drawn) [Compound 166], for which, in assay [1], the “control efficacy (40% or less feeding damage and/or 100% mortality)” value was “very good to excellent levels of control efficacy”.
In the case of `Fc1cncc(-n2cccn2)c1C(F)c1ccc(C(F)(F)F)cn1` (stereo not drawn) [Compound 171], the “control efficacy (40% or less feeding damage and/or 100% mortality)” value in assay [1] is listed as “very good to excellent levels of control efficacy”.
For the compound `Fc1cncc(-n2nccn2)c1C(F)c1ccc(C(F)(F)F)cn1` (stereo not drawn) [Compound 172], in assay [1], the “control efficacy (40% or less feeding damage and/or 100% mortality)” value is recorded as “very good to excellent levels of control efficacy”.
The same measure, in the same setting: the result for `COC(c1ccc(OC(F)(F)F)cc1)c1ncncc1-n1nccn1` (stereo not drawn) [Compound 175] reads “very good to excellent levels of control efficacy”.
